Results on 18 compounds are retold here after patent publication US10343992B2, “1-cyano-pyrrolidine compounds as USP30 inhibitors” (MISSION THERAPEUTICS LIMITED, priority 2015, dated 2019).

The test deals with USP30 (Homo sapiens (Human), UniProt Q70CQ3). The test is described as follows: USP30 biochemical FP or FI IC50 assay. Conditions: read-out: IC50 range. The essentials: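 Human USP30 preincubated 30 min at room temperature with compound (8-point series, 100 µM top final) in Tris pH 7.5, Tween 20, BSA, 5 mM β-mercaptoethanol, in duplicate. FP format: 50 nM TAMRA-peptide–isopeptide-ubiquitin substrate, ex 540/em 590. FI format: 100 nM ubiquitin-rhodamine 110, ex 487/em 535. Both read at 0 and after 2 h at room temperature.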
Chain of USP30 (Q70CQ3 57-517): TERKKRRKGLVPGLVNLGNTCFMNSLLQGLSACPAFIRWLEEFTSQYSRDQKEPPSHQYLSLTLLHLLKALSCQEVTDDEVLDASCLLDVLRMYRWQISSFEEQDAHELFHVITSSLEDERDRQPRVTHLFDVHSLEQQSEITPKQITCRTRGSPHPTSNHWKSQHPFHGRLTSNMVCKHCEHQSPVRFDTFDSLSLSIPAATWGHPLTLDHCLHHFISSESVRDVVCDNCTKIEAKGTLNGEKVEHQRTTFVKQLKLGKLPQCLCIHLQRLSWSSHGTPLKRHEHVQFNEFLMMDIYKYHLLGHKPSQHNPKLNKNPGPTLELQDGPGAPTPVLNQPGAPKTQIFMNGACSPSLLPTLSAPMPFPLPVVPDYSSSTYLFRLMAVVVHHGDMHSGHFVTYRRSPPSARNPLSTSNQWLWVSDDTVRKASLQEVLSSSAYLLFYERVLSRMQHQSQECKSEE
Consider `CN(C(=O)Nc1cccc(Cc2ccccc2)c1)C1CCN(C#N)C1` (stereo not drawn) [Example 256, 3-(3-benzylphenyl)-1-(1-cyanopyrrolidin-3-yl)-1-methylurea], for which the IC50 (commonly the midpoint of a concentration-inhibition curve) lay in the range of 100 to 1000 nM. Consider `CN(C(=O)Nc1cccc(Cl)c1)C1CCN(C#N)C1` (stereo not drawn) [Example 257, 3-(3-chlorophenyl)-1-(1-cyanopyrrolidin-3-yl)-1-methylurea], for which the half-maximal inhibitory concentration (IC50) lay in the range of 100 to 1000 nM. As to `CN(C(=O)Nc1cccc(Oc2ccccc2)c1)C1CCN(C#N)C1` (stereo not drawn) [Example 258, 1-(1-cyanopyrrolidin-3-yl)-1-methyl-3-(3-phenoxyphenyl)urea], the half-inhibitory concentration (IC50) is under 100 nM. With `CN(C(=O)Nc1ccc(-c2ccccc2)cc1)C1CCN(C#N)C1` (stereo not drawn) [Example 259, 3-([1,1′-biphenyl]-4-yl)-1-(1-cyanopyrrolidin-3-yl)-1-methylurea] the figure was under 100 nM; with `CN(C(=O)Nc1ccc(Cl)cc1Cl)C1CCN(C#N)C1` (stereo not drawn) [Example 260, 1-(1-cyanopyrrolidin-3-yl)-3-(2,4-dichlorophenyl)-1-methylurea], 100 to 1000 nM.

On to `CN(C(=O)Nc1ccc(C(F)(F)F)cc1)C1CCN(C#N)C1` (stereo not drawn) [Example 261, 1-(1-cyanopyrrolidin-3-yl)-1-methyl-3-(4-(trifluoromethyl)phenyl)urea], for which the IC50 fell in the range of 100 to 1000 nM. As for `CN(C(=O)c1cc2cc(-c3cnn(C)c3)ncc2[nH]1)[C@@H]1CCN(C#N)C1` [Example 263, (R)-N-(1-cyanopyrrolidin-3-yl)-N-methyl-5-(1-methyl-1H-pyrazol-4-yl)-1H-pyrrolo[2,3-c]pyridine-2-carboxamide], the IC50 was in the range of 100 to 1000 nM. On to `CN(C(=O)N1CCOC(c2ccccc2)C1)[C@@H]1CCN(C#N)C1` (stereo partly drawn) [Example 264, N-((R)-1-cyanopyrrolidin-3-yl)-N-methyl-2-phenylmorpholine-4-carboxamide], for which the IC50 fell in the range of 100 to 1000 nM. With `CN(C(=O)N1CCc2ccccc21)[C@@H]1CCN(C#N)C1` [Example 265, (R)-N-(1-cyanopyrrolidin-3-yl)-N-methylindoline-1-carboxamide], the IC50 was 1000 to 10000 nM.

On to `CN(C(=O)Nc1ccc(C(F)(F)F)nc1)[C@@H]1CCN(C#N)C1` [Example 266, (R)-1-(1-cyanopyrrolidin-3-yl)-1-methyl-3-(6-(trifluoromethyl)pyridin-3-yl)urea], for which the IC50 lay within 100 to 1000 nM. Under `CN(C(=O)Nc1ccc(Cl)cn1)[C@@H]1CCN(C#N)C1` [Example 267, (R)-3-(5-chloropyridin-2-yl)-1-(1-cyanopyrrolidin-3-yl)-1-methylurea] stands 100 to 1000 nM.

Take `N#CN1C[C@H]2CCN(C(=O)c3ccc(N4CCOCC4)c(Cl)c3)[C@H]2C1` [Example 268, (3aR,6aR)-1-(3-chloro-4-morpholinobenzoyl)hexahydro-pyrrolo[3,4-b]pyrrole-5(1H)-carbonitrile]: the IC50 was 100 to 1000 nM.

On to `Cc1cc(-c2cc(C(=O)N[C@@H]3CCN(C#N)C3)on2)ccn1` [Example 270, (R)-N-(1-cyanopyrrolidin-3-yl)-3-(2-methylpyridin-4-yl)isoxazole-5-carboxamide], for which the IC50 was in the range of 100 to 1000 nM. Consider `Cc1ccc(-c2cc(C(=O)N[C@@H]3CCN(C#N)C3)on2)cc1C` [Example 271, (R)-N-(1-cyanopyrrolidin-3-yl)-3-(3,4-dimethylphenyl)isoxazole-5-carboxamide], for which the IC50 was under 100 nM. Under `N#CN1CC[C@@H](NC(=O)c2cc(-c3ccc(F)cc3F)no2)C1` [Example 272, (R)-N-(1-cyanopyrrolidin-3-yl)-3-(2,4-difluorophenyl)isoxazole-5-carboxamide] stands under 100 nM.

With `Cc1cc(-c2cc(C(=O)N(C)[C@@H]3CCN(C#N)C3)on2)ccn1` [Example 273, (R)—N-(1-cyanopyrrolidin-3-yl)-N-methyl-3-(2-methylpyridin-4-yl)isoxazole-5-carboxamide], the IC50 was 100 to 1000 nM. Under “(3aR,6aR)-1-(indoline-1-carbonyl)hexahydropyrrolo[3,4-b]pyrrole-5(1H)-carbonitrile [Example 269]” stands 1000 to 10000 nM; under “(R)-N-(1-cyanopyrroldidin-3-yl)-6-(3,5-dimethylisoxazol-4-yl)-N-methyl-1H-indole-2-carboxamide [Example 262]”, under 100 nM.
